Assay results as given in article PMC9861212 (Metabolites, 2022).
Read-outs that look alike come from different tables or passages of the source. Blank lines part the entries; values can stand above or below the compound they belong to.

How the values were obtained:
[1] = Metabolite profile of SMZ in chickens (LC-v.ARC/MS-IT-TOF); assay type: in vivo; details: for Percentage of the individual metabolite compared with total concentration of SMZ-related compounds: within 12 h after dosing; for Share of the total radioactivity in feces: 0.5–1 d after administration
Experimental: (§1) (0.1 Ci/g). […] Urine and feces samples were stored at −80 °C.
(§2) The weight of each aliquot was 0.1% of the total fraction weight (0.25% for urine). Each sample was centrifuged at 4 °C for 5 min at 4000 rpm/min. The supernatant was collected and 2 mol/L methanol-mixed acid (methanol: 0.5% perchloric acid, 8:1, v:v) was added. Then, the mixture was centrifugated at 10,000 r/min for 10 min, the supernatant was collected and dried with nitrogen at 45 °C. […] The mixture was subjected to Liquid Chromatography tandem on-line isotope detector/Time of Flight Mass Spectrometry (LC-ν.ARC/MS-IT-TOF) system analysis.
(§3) The mixture was prepared for LC-ν. ARC/MS-IT-TOF system analysis.
(§4) X is the percentage of the individual radioactive substances within the total radioactive residues. AUCM is the area under the curve of the individual radioactive substances in the specific samples. AUCT is the area under the curve of the total radioactive residues in the specific samples.

[2] = Tissue distribution and residue depletion in chickens; details: for Concentration of the metabolites in kidney: oral gavage 25 mg/kg twice a day for 7 d, 3 d
Experimental: In addition, the animals in the blank group (pigs and chickens) and the animals in the treatment group were given physiological saline and 0.5% carboxymethyl cellulose aqueous solution in exactly the same dose and in exactly the same way. […] The same as above, at each sampling time point, a non-administered animal was killed and a sample was taken to obtain a blank sample. The medication groups samples and blank samples were washed and their weight was recorded. Afterwards, all samples were homogenized and divided into two parts. One part was used to detect the total radioactivity, and the other part was used for SMZ and metabolite analysis.
(§5) The total radioactivity in the samples were measured by Packard Tricarb 2900 liquid scintillation analyzer (LSC). The pretreated 200 μL liquid sample (urine, blood, and bile) was taken and 10 mL of Ultima Gold scintillation fluid was added for total radioactivity detection by LSC. Then, 200 mg of solid samples (feces and tissues) were accurately weighed, and 2 mL of digestion solution were added and mixed well, then the samples were placed in a 55 °C water bath for 6 h, and cooled to room temperature for later use. Then, 0.1 mol/L disodium edetate (EDTA-2Na) and 30% H2O2 of 200 μL were added and mixed evenly. At room temperature, 10 mL Ultima Gold scintillation fluid was added, and radioactivity determination was performed after standing [21].
The feces and tissues (2 g) were extracted with 10 mL methanol and water (4:1, v:v). The mixture was vortexed and sonicated for 5 min and 10 min, respectively, and finally the samples were centrifugated at 8000 rpm/min for 10 min. The supernatants were transferred into a new centrifuge tube and the residues were further extracted with 10 mL methanol and water (4:1, v:v). The supernatants were combined and evaporated to dryness under a nitrogen stream at 45 °C. The residues were dissolved with 0.5 mL of mobile phase and vortexed mixed for 30 s. Then, 1 mL n-hexane was added to remove the lipid, the mixture was vortexed evenly mixed, centrifugated at 10,000 rpm/min for 10 min and the n-hexane layer was discarded. […] The SMZ and its metabolites in the prepared samples were determined by a ν. ARC radiation detector and a hybrid IT/TOF mass spectrometer connected to the HPLC system (Shimadzu Corp., Kyoto, Japan). The HPLC system was equipped with a solvent delivery pump (LC20AD), autosampler (SIL20AC), DGU20A3 degasser, photodiode array detector (SPDM20A), communication base module (CBM20A), and a column oven (CTO20AC). Separation was performed on a X Bridge C18 column (150 × 2.1 mm; 3.5 μm) using a gradient elution consisting of mobile phase A (0.1% formic acid in water) and mobile phase B (acetonitrile). […] Photo-diode array (PDA) detection was performed from 200 to 400 nm. The sample chamber in the autosampler was maintained at 4 °C, whereas the column was set at 25 °C. The total effluent from the detector was transferred directly to the hybrid IT-TOF mass spectrometer without splitting. Metabolites were isolated and identified using a Shimadzu high-performance liquid chromatography-mass spectrometry-ion trap-time-of-flight (LC-MS-IT-TOF) hybrid mass spectrometer equipped with an electrospray ionization (ESI) source and operated in the positive mode. The eluate from the chromatographic separation was divided into two portions.

[3] = Metabolite profile of SMZ in pigs (LC-v.ARC/MS-IT-TOF); assay type: in vivo; details: for Detection in feces: pig feces, 7 d after administration
Experimental: as §1
as §2, with “Each” for “The weight of each aliquot was 0.1% of the total fraction weight (0.25% for urine). Each”
as §3, §4

[4] = Tissue distribution and residue depletion in pigs
Experimental: (§6) Another 6 rats were administered physiological saline at the same dose and in exactly the same way as the other animals. The same as above, at each sampling time point, a non-administered animal was killed and a sample was taken to obtain a blank sample. The medication groups samples and blank samples were washed and their weight was recorded. Afterwards, all samples were homogenized and divided into two parts. One part was used to detect the total radioactivity, and the other part was used for SMZ and metabolite analysis.
as §5
The feces and tissues (2 g) were extracted with 10 mL methanol and water (4:1, v:v). The mixture was vortexed and sonicated for 5 min and 10 min, respectively, and finally the samples were centrifugated at 8000 rpm/min for 10 min. The supernatants were transferred into a new centrifuge tube and the residues were further extracted with 10 mL methanol and water (4:1, v:v). The supernatants were combined and evaporated to dryness under a nitrogen stream at 45 °C. The residues were dissolved with 0.5 mL of mobile phase and vortexed mixed for 30 s. Then, 1 mL n-hexane was added to remove the lipid, the mixture was vortexed evenly mixed, centrifugated at 10,000 rpm/min for 10 min and the n-hexane layer was discarded. […] The SMZ and its metabolites in the prepared samples were determined by a ν. ARC radiation detector and a hybrid IT/TOF mass spectrometer connected to the HPLC system (Shimadzu Corp., Kyoto, Japan). The HPLC system was equipped with a solvent delivery pump (LC20AD), autosampler (SIL20AC), DGU20A3 degasser, photodiode array detector (SPDM20A), communication base module (CBM20A), and a column oven (CTO20AC). Separation was performed on a X Bridge C18 column (150 × 2.1 mm; 3.5 μm) using a gradient elution consisting of mobile phase A (0.1% formic acid in water) and mobile phase B (acetonitrile). […] Photo-diode array (PDA) detection was performed from 200 to 400 nm. The sample chamber in the autosampler was maintained at 4 °C, whereas the column was set at 25 °C. The total effluent from the detector was transferred directly to the hybrid IT-TOF mass spectrometer without splitting. Metabolites were isolated and identified using a Shimadzu high-performance liquid chromatography-mass spectrometry-ion trap-time-of-flight (LC-MS-IT-TOF) hybrid mass spectrometer equipped with an electrospray ionization (ESI) source and operated in the positive mode. The eluate from the chromatographic separation was divided into two portions. The portion for metabolic quantification was applied to a ν.ARC 2.0, and the rest was analyzed and identified by ion trap time-of-flight tandem mass spectrometry (IT-TOF-MS/MS). Radiochemical detection was performed using the ν.ARC 2.0 Radio-LC system Detector RS232 equipped with a 500 μL detector cell (AIM Research Co., Hockessin, DE, USA).

[5] = chickens, single oral gavage 25 mg/kg b.w.
Experimental: (§7) Six Wistar rats (three females and three males), six chickens and four pigs were housed in clean metabolic cages. […] (0.1 Ci/g). The broiler chickens were given the same dose by oral gavage. According to the recommended guidelines, the urine and feces samples of these animals were collected at different time intervals. […] At the end of the experiment, all animals were anesthetized and sacrificed in accordance with euthanasia guidelines (AVMA, 2001). Urine and feces samples were stored at −80 °C.
as §5

[6] = pigs, single i.m. 25 mg/kg b.w.
Experimental: as §7, §5

[7] = Tissue distribution and residue depletion in rats; details: single i.m. dose
Experimental: as §6
The total radioactivity in the samples were measured by Packard Tricarb 2900 liquid scintillation analyzer (LSC). The pretreated 200 μL liquid sample (urine, blood, and bile) was taken and 10 mL of Ultima Gold scintillation fluid was added for total radioactivity detection by LSC. […] At room temperature, 10 mL Ultima Gold scintillation fluid was added, and radioactivity determination was performed after standing [21].
The feces and tissues (2 g) were extracted with 10 mL methanol and water (4:1, v:v). […] The SMZ and its metabolites in the prepared samples were determined by a ν. […] The portion for metabolic quantification was applied to a ν.ARC 2.0, and the rest was analyzed and identified by ion trap time-of-flight tandem mass spectrometry (IT-TOF-MS/MS). […]

[8] = Metabolite profile of SMZ in rats (LC-v.ARC/MS-IT-TOF); assay type: in vivo; details: rat urine; after i.m. injection
Experimental: as §1, §2, §3, §4

[9] = tested on: TA100 strain of Salmonella typhimurium; details: cited from earlier work
[10] = cited from earlier work
[11] = pig, within 12 h after administration
[12] = chicken, 6 h after administration
[13] = female rats, single i.m. 25 mg/kg b.w., 0–0.5 d
[14] = female rats, single i.m. 25 mg/kg b.w., 0.5–1 d
[15] = female rats, single i.m. 25 mg/kg b.w., 1–3 d
[16] = female rats, single i.m. 25 mg/kg b.w., 3–7 d
[17] = female rats, single i.m. 25 mg/kg b.w., 7–14 d
[18] = female rats, single i.m. 25 mg/kg b.w., within 14 d
[19] = male rats, single i.m. 25 mg/kg b.w., 0–0.5 d
[20] = male rats, single i.m. 25 mg/kg b.w., 0.5–1 d
[21] = male rats, single i.m. 25 mg/kg b.w., 1–3 d
[22] = male rats, single i.m. 25 mg/kg b.w., 3–7 d
[23] = male rats, single i.m. 25 mg/kg b.w., 7–14 d
[24] = male rats, single i.m. 25 mg/kg b.w., within 14 d

Percentage of the individual metabolite compared with total concentration of SMZ-related compounds ([1]; chicken Extra (feces/excreta)): 9.6%
Percentage of the individual metabolite compared with total concentration of SMZ-related compounds ([1]; chicken bile): 2.5%
Percentage of the individual metabolite compared with total concentration of SMZ-related compounds ([1]; chicken plasma (blood)): 1.2%
Concentration of the metabolites in kidney ([2]; chicken): not detected
Structure (SMILES): Nc1ccc(S(=O)(=O)Nc2cc(CO)on2)cc1 [Compound S2, 5-hydroxysulfamethoxazole]

Share of the total radioactivity in feces ([1]; chicken feces): 2.06%
Concentration of the metabolites in kidney ([2]; chicken): not detected
Structure (SMILES): Cc1cc(NS(=O)(=O)c2ccc(NS(=O)(=O)O)cc2)no1 [Compound S4, N4-sulfatesulfamethoxazole]

Structure (SMILES): CC(=O)Nc1ccc(S(=O)(=O)Nc2cc(C)on2)cc1 [Compound S1, N4-acetyl-sulfamethoxazole]
Detection in feces [3]: detected
Share of the total residues in fat [4, 11]: 58.1%
Share of the total residues in kidney [4, 11]: 66.5%
Share of the total residues in muscle [4, 11]: 44.1%
Share of the residual amount in fat [2, 12]: 70.0%
Share of the residual amount in kidney [2, 12]: 1.0%
Share of the residual amount in liver [2, 12]: 71.7%
Share of the residual amount in muscle [2, 12]: 42.1%

Recovery of total radioactivity in excreta ([5]; 0–0.5 d, 25 mg/kg): 60.65 ± 13.08%
Recovery of total radioactivity in excreta ([5]; 0–14 d): 93.39 ± 2.28%
Recovery of total radioactivity in excreta ([5]; 0.5–1 d): 15.08 ± 6.87%
Recovery of total radioactivity in excreta ([5]; 1–3 d): 11.91 ± 9.67%
Recovery of total radioactivity in excreta ([5]; 3–7 d): 5.48 ± 1.89%
Recovery of total radioactivity in excreta ([5]; 7–14 d): 0.26 ± 0.13%
Recovery of total radioactivity in feces ([6]; 0–0.5 d): 5.56 ± 0.42%
Recovery of total radioactivity in urine ([6]; 0–0.5 d): 60.02 ± 16.54%
Total radioactive recovery rate (urine and feces) ([6]; 0–0.5 d): exceeds 65%
Recovery of total radioactivity in feces ([6]; 0–14 d): 14.72 ± 1.31%
Recovery of total radioactivity in feces ([6]; 0.5–1 d): 2.69 ± 3.12%
Recovery of total radioactivity in urine ([6]; 0.5–1 d): 15.3 ± 8.73%
Recovery of total radioactivity in feces ([6]; 1–3 d): 5.19 ± 3.36%
Recovery of total radioactivity in urine ([6]; 1–3 d): 4.52 ± 2.22%
Recovery of total radioactivity in feces ([6]; 3–7 d): 0.82 ± 0.34%
Recovery of total radioactivity in urine ([6]; 3–7 d): 0.59 ± 0.17%
Recovery of total radioactivity in feces ([6]; 7–14 d): 0.45 ± 0.3%
Recovery of total radioactivity in urine ([6]; 7–14 d): 0.16 ± 0.04%
Time point of the highest levels of radioactivity in all collected substrates [7]: 1 h
Time point of the highest levels of radioactivity in all collected substrates ([4]; pigs, i.m. 7 consecutive days): 12 h
Recovery of total radioactivity in feces [13]: 14.31 ± 1.73%
Recovery of total radioactivity in urine [13]: 45.38 ± 6.09%
Recovery of total radioactivity in feces (female rats, single i.m. 25 mg/kg b.w., 0–14 d): 19.58 ± 2.09%
Recovery of total radioactivity in feces [14]: 4.45 ± 1.87%
Recovery of total radioactivity in urine [14]: 19.41 ± 2.15%
Recovery of total radioactivity in feces [15]: 1.02 ± 0.72%
Recovery of total radioactivity in urine [15]: 10.09 ± 3.14%
Recovery of total radioactivity in feces [16]: 0.42 ± 0.28%
Recovery of total radioactivity in urine [16]: 3.97 ± 1.24%
Recovery of total radioactivity in feces [17]: 0.05 ± 0.03%
Recovery of total radioactivity in urine [17]: 0.38 ± 0.17%
Total recovery of radioactivity (urine + feces) [18]: 97.3 ± 1.16%
Recovery of total radioactivity in feces [19]: 17.3 ± 1.16%
Recovery of total radioactivity in urine [19]: 45.33 ± 4.79%
Recovery of total radioactivity in feces (male rats, single i.m. 25 mg/kg b.w., 0–14 d): 23.24 ± 1.79%
Recovery of total radioactivity in feces [20]: 5.3 ± 1.43%
Recovery of total radioactivity in urine [20]: 19.31 ± 7.15%
Recovery of total radioactivity in feces [21]: 0.35 ± 0.14%
Recovery of total radioactivity in urine [21]: 7.49 ± 2.04%
Recovery of total radioactivity in feces [22]: 0.25 ± 0.14%
Recovery of total radioactivity in urine [22]: 2.7 ± 1.89%
Recovery of total radioactivity in feces [23]: 0.05 ± 0.03%
Recovery of total radioactivity in urine [23]: 0.49 ± 0.3%
Total recovery of radioactivity (urine + feces) [24]: 98.56 ± 2.82%
Total radioactive recovery rate (urine and feces) (rats, single i.m. 25 mg/kg b.w., 0–0.5 d): > 59%
Dose excreted (total radioactivity) (rats, single i.m., within 14 days): more than 93%
Time point of the highest levels of radioactivity in all collected substrates ([2]; chickens, gavage 7 consecutive days): 6 h
Structure (SMILES): [3H]c1cc(N)ccc1S(=O)(=O)Nc1cc(C)on1 [[^3H]-SMZ, 2-[^3H]-sulfamethoxazole]

Detection in urine by LC-MS-IT-TOF [8]: trace amounts
Detection in feces by LC-MS-IT-TOF ([1]; chicken feces, 12 h): trace amount
Detection in urine by LC/MS-IT-TOF ([3]; pig urine, 0–0.5 d): trace amounts
Structure (SMILES): Cc1cc(NS(=O)(=O)c2ccc(NC3OC(C(=O)O)C(O)C(O)C3O)cc2)no1 (stereo not drawn) [Compound S5, N4-glucuronidsulfamethoxazole]

Structure (SMILES): Cc1cc(NS(=O)(=O)c2ccc(N)cc2)no1 [Compound S0, sulfamethoxazole]
Recovery of total radioactivity in feces ([6]; 0–14 d): 14.7%
Detection in feces [3]: not detected
Share of the total residues in fat [4, 11]: 41.9%
Share of the total residues in kidney [4, 11]: 33.5%
Share of the total residues in liver [4, 11]: 34.4%
Share of the total residues in muscle [4, 11]: 55.9%
Total recovery of radioactivity (urine + feces) [18]: 97%
Total recovery of radioactivity (urine + feces) [24]: 98%
Excreted through feces (rats (sexes together), single i.m. 25 mg/kg b.w., within 14 d): 21.4%

Structure (SMILES): CC(=O)ONc1ccc(S(=O)(=O)Nc2cc(C)on2)cc1 [N-acetoxy-SMZ]
Mutagenicity in the Ames test [9]: weak mutations
In vitro cytotoxicity relative to S3 [10]: more toxic than S3

Percentage of the individual metabolite compared with total concentration of SMZ-related compounds ([1]; chicken Extra (feces/excreta)): 4.4%
Percentage of the individual metabolite compared with total concentration of SMZ-related compounds ([1]; chicken bile): not detected
Share of the total radioactivity in feces ([1]; chicken feces): no longer detected
Percentage of the individual metabolite compared with total concentration of SMZ-related compounds ([1]; chicken plasma (blood)): 0.9%
Concentration of the metabolites in kidney ([2]; chicken): not detected
Structure (SMILES): Cc1cc(NS(=O)(=O)c2ccc(NO)cc2)no1 [Compound S3, N4-hydroxyamino sulfamethoxazole]
Reactivity / direct cytotoxicity [10]: neither highly reactive nor directly cytotoxic
